Target: PvlArgDC (pyruvoyl-dependent arginine decarboxylase) (Methanocaldococcus jannaschii, UniProt Q57764)
Experiment: X-ray crystal structure, […] A
Assay type: binding
Settings: cocrystallized with 1-2 mM arginine, pH 6.7-7.3, 295 K; agmatine in all six active sites

Sequence of PvlArgDC (pyruvoyl-dependent arginine decarboxylase) (Q57764 53-165): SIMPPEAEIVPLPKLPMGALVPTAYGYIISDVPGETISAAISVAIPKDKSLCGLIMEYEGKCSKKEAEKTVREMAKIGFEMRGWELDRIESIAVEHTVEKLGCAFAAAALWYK
Sequence of PvlArgDC (pyruvoyl-dependent arginine decarboxylase) (Q57764 1-52): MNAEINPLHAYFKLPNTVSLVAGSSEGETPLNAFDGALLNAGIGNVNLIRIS

## N=C(N)NCCCCN [agmatine]
  X-ray crystal structure, 2.0 A: all six protomers were fully processed and contained the product agmatine at the active site
